Reference: publication PMC9693918, “May Sulfonamide Inhibitors of Carbonic Anhydrases from Mammaliicoccus sciuri Prevent Antimicrobial Resistance Due to Gene Transfer to Other Harmful Staphylococci?” (International Journal of Molecular Sciences, 2022)

Target: T1, MscCAγ (M. sciuri γ-CA) (Mammaliicoccus sciuri, UniProt A0AB37HNM1)
T1 construct: gene OWO77_11715
T1 sequence (A0AB37HNM1 1-169): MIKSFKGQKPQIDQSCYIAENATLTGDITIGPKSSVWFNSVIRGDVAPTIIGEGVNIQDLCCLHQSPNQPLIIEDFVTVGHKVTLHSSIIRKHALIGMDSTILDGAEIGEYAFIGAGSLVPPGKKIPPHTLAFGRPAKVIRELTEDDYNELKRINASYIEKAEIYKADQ
Experiment: stopped-flow CO2 hydration assay, phenol red
Assay type: biochemical
Details: not given
Description: stopped-flow CO2 hydration assay, phenol red on MscCAγ (M. sciuri γ-CA)

For NCCc1ccc(S(N)(=O)=O)cc1 [compound 6, 6], the Ki was 176 nM.

Same assay, conditions: read-out: KI (nM) ^a / MscCAγ

Compared with NS(=O)(=O)c1ccc(N2CCCCS2(=O)=O)cc1 [SLT], Nc1ccc(S(=O)(=O)Nc2ccc(S(N)(=O)=O)cc2)cc1 [compound 22, 22] is 5.6-fold lower in Ki: 405 nM for the first, 72.5 nM for the second.

Going from CC(=O)N=c1sc(S(N)(=O)=O)nn1C [MZA] to NS(=O)(=O)c1nnc(NS(=O)(=O)c2ccccc2)s1 [BZA], the Ki rises from 94.5 nM to 444 nM (4.7-fold). The first binds more tightly here.

First: Cc1ccc(-c2cc(C(F)(F)F)nn2-c2ccc(S(N)(=O)=O)cc2)cc1 [CLX]
Second: Cc1onc(-c2ccccc2)c1-c1ccc(S(N)(=O)=O)cc1 [VLX]
The Ki of the first is 2-fold higher: 3020 nM for the first, 1540 nM for the second.

Going from O=C1NS(=O)(=O)c2ccccc21 [SAC] to NS(=O)(=O)Cc1noc2ccccc12 [ZNS], the Ki falls from 29700 nM to 923 nM (32-fold). The second binds more tightly here.

Going from NS(=O)(=O)c1cc(Cl)c(Cl)c(S(N)(=O)=O)c1 [DCP] to NS(=O)(=O)c1cc2c(cc1Cl)NCNS2(=O)=O [HCT], the Ki rises from 8580 nM to 18300 nM (2.1-fold). The first binds more tightly here.

Compared with CCN1CCCC1CNC(=O)c1cc(S(N)(=O)=O)ccc1OC (stereo not shown) [SLP], CCN[C@H]1CN(CCCOC)S(=O)(=O)c2sc(S(N)(=O)=O)cc21 [BRZ] is 22-fold lower in Ki: 2200 nM for the first, 100 nM for the second.

First: CC1(C)O[C@@H]2[C@@H](CO[C@@]3(COS(N)(=O)=O)OC(C)(C)O[C@@H]23)O1 [TPM]
Second: NS(=O)(=O)c1ccc(CCNS(=O)(=O)c2ccc([N+](=O)[O-])cc2CO)cc1 [compound 21, 21]
The Ki of the first is 6.9-fold higher: 578 nM for the first, 83.4 nM for the second.

NS(=O)(=O)c1ccc(S(=O)(=O)Nc2cccc3c(Cl)c[nH]c23)cc1 [IND] gave a Ki of 369 nM.
